# Reference: ChEMBL document CHEMBL1130458, “Inhibition of carboxypeptidase a by N-(4-t-Butylbenzoyl)-2-hydroxy-1-naphthaldehyde hydrazone” (Bioorg Med Chem Lett, 1997)
# Legend:
# [1] = target: T1, Angiotensin-converting enzyme (Oryctolagus cuniculus) (UniProt P12822); test: Percentage inhibition of angiotensin converting enzyme (rabbit lung) by the compound required to inhibit at 63 uM was evaluated
# T1 sequence (whole entry): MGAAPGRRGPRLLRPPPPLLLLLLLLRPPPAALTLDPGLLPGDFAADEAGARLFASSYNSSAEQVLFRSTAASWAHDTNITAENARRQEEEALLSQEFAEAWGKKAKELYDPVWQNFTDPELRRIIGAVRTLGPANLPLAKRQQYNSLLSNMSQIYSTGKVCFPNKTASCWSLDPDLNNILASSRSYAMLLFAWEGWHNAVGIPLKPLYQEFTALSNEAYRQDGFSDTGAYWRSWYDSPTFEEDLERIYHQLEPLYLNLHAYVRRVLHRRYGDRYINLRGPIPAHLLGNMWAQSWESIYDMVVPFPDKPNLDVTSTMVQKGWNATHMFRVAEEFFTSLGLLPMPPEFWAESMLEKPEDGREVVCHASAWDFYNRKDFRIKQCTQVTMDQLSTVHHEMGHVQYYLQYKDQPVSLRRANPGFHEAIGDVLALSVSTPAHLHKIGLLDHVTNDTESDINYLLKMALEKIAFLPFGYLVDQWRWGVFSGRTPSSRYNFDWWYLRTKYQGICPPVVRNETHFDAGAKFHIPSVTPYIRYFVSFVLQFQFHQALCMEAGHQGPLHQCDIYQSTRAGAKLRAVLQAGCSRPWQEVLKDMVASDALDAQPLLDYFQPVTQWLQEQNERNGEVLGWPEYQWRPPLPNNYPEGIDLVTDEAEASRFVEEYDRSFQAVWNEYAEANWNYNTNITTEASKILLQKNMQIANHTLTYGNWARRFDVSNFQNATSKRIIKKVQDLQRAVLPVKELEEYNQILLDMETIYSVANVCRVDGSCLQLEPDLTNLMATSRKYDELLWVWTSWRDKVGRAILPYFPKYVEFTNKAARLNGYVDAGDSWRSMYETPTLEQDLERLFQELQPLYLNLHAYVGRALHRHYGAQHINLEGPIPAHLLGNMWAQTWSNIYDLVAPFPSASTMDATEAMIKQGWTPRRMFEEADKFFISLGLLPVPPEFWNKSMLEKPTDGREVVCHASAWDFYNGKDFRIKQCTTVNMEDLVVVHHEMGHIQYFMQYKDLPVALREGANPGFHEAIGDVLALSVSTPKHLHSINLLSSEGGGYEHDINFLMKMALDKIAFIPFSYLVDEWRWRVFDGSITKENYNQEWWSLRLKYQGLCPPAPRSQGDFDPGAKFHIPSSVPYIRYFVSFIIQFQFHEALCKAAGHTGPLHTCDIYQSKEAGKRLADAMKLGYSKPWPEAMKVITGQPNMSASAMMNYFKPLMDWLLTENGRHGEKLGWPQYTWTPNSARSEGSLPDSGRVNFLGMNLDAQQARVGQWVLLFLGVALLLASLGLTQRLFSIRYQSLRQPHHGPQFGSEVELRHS
# [2] = target: T2, Carboxypeptidase A1 (Bos taurus) (UniProt P00730); test: Percentage inhibition of carboxypeptidase A (CPA, bovine, Type I) enzyme by the compound required to inhibit at 63 uM was evaluated
# T2 sequence (whole entry): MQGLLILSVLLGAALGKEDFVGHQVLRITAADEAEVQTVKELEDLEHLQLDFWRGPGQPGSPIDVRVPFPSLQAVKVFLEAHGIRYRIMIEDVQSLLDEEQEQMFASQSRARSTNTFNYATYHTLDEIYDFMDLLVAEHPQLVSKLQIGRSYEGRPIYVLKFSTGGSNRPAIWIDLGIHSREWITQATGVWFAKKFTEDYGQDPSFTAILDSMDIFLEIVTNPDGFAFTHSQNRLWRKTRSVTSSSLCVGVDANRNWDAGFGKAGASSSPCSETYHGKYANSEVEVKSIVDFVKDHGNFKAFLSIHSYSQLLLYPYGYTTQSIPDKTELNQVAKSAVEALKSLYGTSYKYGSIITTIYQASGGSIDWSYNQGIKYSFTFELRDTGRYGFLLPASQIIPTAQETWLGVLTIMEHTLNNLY
# Carboxypeptidase A1 = target: T3, Carboxypeptidase A1 (Bos taurus, UniProt P00730); test: Inhibitory concentration required to inhibit carboxypeptidase A (CPA, bovine, Type I) was evaluated
# T3 sequence (P00730 whole entry): T2 sequence (whole entry)
Structure (SMILES),inhibition [1] [%],inhibition [2] [%],IC50 (Carboxypeptidase A1) [µM]
CC(C)(C)c1ccc(C(=O)N/N=C/c2ccccc2O)cc1,3,33,
CC(C)(C)c1ccc(C(=O)N/N=C/c2c(O)ccc3ccccc23)cc1,5,,29
CC(C)(C)c1ccc(C(=O)N/N=C/c2cccc3ccccc23)cc1,2,17,
